{"source": "patent EP0366451A2", "about": "“The use of oxidized polyamines, especially NN'-Bis-(3-propionaldehyde)-1-4-diaminobutane (sperminedialdehyde) as immunosuppressive agents” (ORTHO PHARMACEUTICAL CORPORATION, priority 1988, dated 1990)", "key": {"[1]": {"system": "lethally irradiated AKR mice", "test": "Bone marrow transplantation with ex vivo treated graft (GVHD, survival)", "format": "in vivo", "experimental": "C57BL spleen and bone marrow cell mixtures were treated with different concentrations of spermine dialdehyde or control preparation and injected i.v. into lethally irradiated AKR mice. A graph is depicted wherein percentage survival is scored as a function of time.\nIn bone marrow transplantation, bone marrow cells from normal donor mice were transplanted to totally histoincompatible and lethally irradiated recipients. All recipient mice received 9.5 Gy (950 rads) total body irradiation on day 0 and were then housed in microisolator cages thereafter. They were given autoclaved rodent laboratory chow throughout the whole study and also were allowed to feed ad libitum. Recipients also received 1.5 mg/kg of gentamicin subcutaneously for 20 days after irradiation. On the day of irradiation, bone marrow cells mixed in 3:1 ratio with spleen cells were removed from donors and incubated for an hour with different concentrations of spermine dialdehyde for 1 hour. Spleen cells were added to intensify subsequent graft vs. host disease (GVHD). After incubation, cells were washed 3 times and then injected intravenously into irradiated recipients. Signs of GVHD and survival were scored every day thereafter.\nBone marrow and spleen cell mixtures (3:1 ratio) from C57BL mice were incubated with control preparation or various concentrations of spermine dialdehyde for 1 hour Cells were then washed extensively and injected intravenously into lethally irradiated histoincompatible AKR mice. Signs of graft vs. host diseases such as hunched back, diarrhea, alopecia, and physical conditions were recorded daily. […] Thus treatment with lower doses of spermine dialdehyde inactivated T lymphocytes without being toxic to marrow celis and allowed animals to reconstitute with little sign of GVHD."}, "[2]": {"system": "Human T lymphocytes", "test": "PHA driven human T cell proliferation after 1 hour incubation", "format": "cell-based", "conditions": "0.62 x 10⁻² mM, 1 hour at 37°C, washed; Figure 1", "experimental": "Human T & B lymphocytes were incubated separately with different concentrations of spermine dialdehyde in vitro for 1 hour. Cells were washed extensively and set up in a PHA (for T cell) or PWM (B cell) proliferation assay. A graph is depicted wherein percentage of response is plotted as a function of concentration of spermine dialdehyde.\nPeripheral blood lymphocytes (PBL) were obtained from the blood of normal donors by using standard Ficoll-Hypaque gradient techniques. The T and non-T cells were separated by standard sheep red blood cell (SRBC) rosetting technique. Briefly, 5 x 10⁶/ml PBL were incubated with 1% neuraminidase-treated SRBC, and rosetted cells were separated from non-rosetted cells in a Ficoll-Hypaque gradient. The rosetted cells were designated as T cells. Purified B lymphocytes were obtained from non-rosetted cells by removal of residual T cells using the Pan T monoclonal antibody OKT 11 and complement.\nT cell proliferation: 7 x 10⁴ - 10⁵ human T lymphocytes were cultured in flat bottom microtiter plates (Flow) in the presence of 0.1% PHA-P or 1/64 PWM for 4 days. 3H-thymidine (0.1 MCi/well) was added for the last 6 hours of the culture period. […] Cell associated radioactivity was determined by scintillation counting in an automated counter. All of the results were expressed as % response calculated according to the formula: [formula] […]"}, "[3]": {"target": "T1, S-Adenosylmethionine Decarboxylase (AdoMet DC) (Mus musculus, UniProt P0DMN7)", "T1 construct": "endogenous in cells; host or cells: murine leukemic L1210 cells (supernatant)", "T1 sequence (P0DMN7 68-334 limits assumed)": "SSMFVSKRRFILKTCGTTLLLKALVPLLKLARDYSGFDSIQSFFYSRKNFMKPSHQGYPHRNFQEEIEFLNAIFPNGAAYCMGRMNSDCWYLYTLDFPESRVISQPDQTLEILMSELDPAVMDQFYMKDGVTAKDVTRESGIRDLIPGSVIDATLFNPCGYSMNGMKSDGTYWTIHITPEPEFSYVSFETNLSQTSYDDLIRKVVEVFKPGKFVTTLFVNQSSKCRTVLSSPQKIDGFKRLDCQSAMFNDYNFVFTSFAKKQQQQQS", "T1 sequence (P0DMN7 1-67 limits assumed)": "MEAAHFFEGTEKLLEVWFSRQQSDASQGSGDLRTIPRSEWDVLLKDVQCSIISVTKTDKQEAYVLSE", "test": "AdoMet DC inhibition in L1210 cell supernatants ([14C]CO2 release)", "format": "biochemical, Murine", "experimental": "Murine leukemic L1210 cell supernatants were incubated with different concentrations of SDA or butyl dialdehyde, and AdoMet DC activity was estimated by monitoring the release of [¹⁴C] CO₂. Inhibition curves for both drugs were superimposable with IC₅₀ values of 0.12-0.13 x 10⁻³ M."}, "[4]": {"system": "L1210/0 cells", "test": "L1210/0 cell proliferation ([3H]-thymidine incorporation)", "format": "cell-based, Murine", "experimental": "(§1) Murine lymphocytic leukemia cell lines, L1210/CPA and L1210/0 (als. known as Le/CPA and Le/0) were kindly provided by Dr. F. Struck, Southern Research Institute, Birmingham, AL. Cells were grown in RPMI-1640, supplemented with 10% horse serum, 100 units/ml penicillin and 100 µg/ml streptomycin. The cultures were incubated at 37°C in a humidified atmosphere with 5% CO₂ in air. Bone marrow cells were flushed from femurs of mice with RPMI-1640, using a tuberculin syringe fitted with a 25 gauge meedle. For spleen cells, spleens were removed and passed through a fine wire mesh to get a single homogenous cell suspension. In either case, cells were centrifuged, washed twice and resuspended in the drug exposure medium (see below). Cell viability was determined by trypan blue exclusion and the cell suspension was diluted to the desired concentration.\n(§2) Murine leukemic cells and bone marrow/spleen cells were treated with SDA (1 x 10^-6 M to 5 x 10⁻⁵ M) in RPMI-1640 or PBS based solution. Wherever mentioned, cells were pretreated with DEAB (10-30 µM) for 30-60 min at 37°C and then exposed to SDA.\nFor [³H]-thymidine incorporation, drug or vehicle treated bone marrow or spleen cells were plated in RPMI-1640, containing 10% fetal bovine serum, 10 µM β-mercaptoethanol, 25 mM HEPES and 2 mM glutamine. Con-A (4 µg/ml and […]) was used as mitogens for bone marrow and spleen cells. Three days later, [³H]-thymidine (0.2 µCi/well) was added and cells were harvested after 12-18 hrs. L1210/CPA and L1210/0 cells (0.1 - 1 x 10⁵ cells/well were plated in RPMI-1640 containing 10% horse serum. [³H]-thymidine was added after 24 hrs and cells were filtered on GF/B filter paper for scintillation counting."}, "[5]": {"system": "L1210/CPA cells", "test": "L1210/CPA cell proliferation ([3H]-thymidine incorporation)", "format": "cell-based, Murine", "experimental": "as §1, §2\nFor [³H]-thymidine incorporation, drug or vehicle treated bone marrow or spleen cells were plated in RPMI-1640, containing 10% fetal bovine serum, 10 µM β-mercaptoethanol, 25 mM HEPES and 2 mM glutamine. Con-A (4 µg/ml and […]) was used as mitogens for bone marrow and spleen cells. […]"}}}
{"compound": "O=CCCNCCCCNCCC=O", "note": "[SDA, NN′-Bis-(3-propionaldehyde)-1-4-diaminobutane]", "values": [{"measurement": "signs of GVHD", "setting": "[1]; bone marrow treated ex vivo for 1 hour", "result": "only mild signs of GVHD"}, {"measurement": "survival time", "setting": "[1]; marrow treated ex vivo with lower doses (0.03-0.06), Figure 3", "result": "significantly prolonged survival time"}, {"measurement": "marrow toxicity", "setting": "[1]; very high dose groups of 0.2mM, ex vivo treatment", "result": "exhibited marrow toxicity"}, {"measurement": "inhibited T cell proliferation", "setting": "[2]", "result": 85, "unit": "%"}, {"measurement": "inhibition of AdoMet DC (in words)", "setting": "[3]; Fig. 9 and Figure 10", "result": "inhibited both of the key enzymes"}, {"measurement": "IC50", "setting": "[3]; Figure 9, inhibition curves superimposable, read-out: IC₅₀ values", "result": "120 to 130", "unit": "µM"}, {"measurement": "effect of DEAB pretreatment on cytotoxicity of SDA", "setting": "[4]; DEAB (20 µM) pretreatment", "result": "little or no effect"}, {"measurement": "IC50", "setting": "[4]; Mus musculus, L1210/0, [³H]-thymidine incorporation, read-out: mean IC₅₀", "result": 4.66, "unit": "µM"}, {"measurement": "sensitivity of L1210/0 cells relative to L1210/CPA cells", "setting": "[4]; proliferation assays", "result": 2, "unit": "fold"}, {"measurement": "effect of DEAB pretreatment on cytotoxicity of SDA", "setting": "[5]; DEAB (20 µM) pretreatment", "result": "potentiated the cytotoxicitty of SDA"}, {"measurement": "IC50", "setting": "[5]; Mus musculus, L1210, [³H]-thymidine incorporation, read-out: mean IC₅₀", "result": 8.3, "unit": "µM"}]}
